The values below come from patent US20110178015A1, “METHODS OF TREATMENT USING BIASED LIGANDS FOR RECEPTORS SUCH AS THE PTH RECEPTOR” (priority 2007, published 2011).

“Also recorded” adds a separate entry of the source.

Assay [1] has as its target T1, endogenous PTH1R (Mus musculus, UniProt P41593).
T1 construct: stimulation of endogenous PTH1R in primary murine osteoblasts (POB); endogenous in cells; host or cells: primary osteoblasts (POB) from WT and β-arrestin 2−/− C57BL/6 mice
T1 sequence (P41593 27-591): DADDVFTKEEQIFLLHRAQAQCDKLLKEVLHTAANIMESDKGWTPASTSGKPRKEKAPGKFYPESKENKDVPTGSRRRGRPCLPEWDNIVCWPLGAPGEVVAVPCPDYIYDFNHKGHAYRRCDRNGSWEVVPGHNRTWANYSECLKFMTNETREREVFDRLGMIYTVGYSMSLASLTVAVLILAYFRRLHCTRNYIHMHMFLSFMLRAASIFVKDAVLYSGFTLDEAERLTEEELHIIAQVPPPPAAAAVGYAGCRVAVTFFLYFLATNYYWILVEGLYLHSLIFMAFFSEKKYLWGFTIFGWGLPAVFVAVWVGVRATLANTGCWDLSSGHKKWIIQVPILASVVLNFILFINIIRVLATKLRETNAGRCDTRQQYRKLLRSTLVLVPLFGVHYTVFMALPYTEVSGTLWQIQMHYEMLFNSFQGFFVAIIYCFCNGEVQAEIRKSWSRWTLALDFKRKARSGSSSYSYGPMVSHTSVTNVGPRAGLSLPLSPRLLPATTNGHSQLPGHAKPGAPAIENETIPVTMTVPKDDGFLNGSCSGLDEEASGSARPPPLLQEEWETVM
The experiment in a line: cAMP accumulation in primary osteoblasts (POB). In kind it is cell-based, mice. Particulars: 100 nM PTH(1-34) or 1 μM PTH-βarr, 5 min. How it is done:
FIG. 1. […] Cells were treated with 100 nM PTH(1-34) (PTH) or 1 μM PTH-βarr. […] Data correspond to the mean±SEM from four independent experiments. (***, P<0.001 compared with the nonstimulated WT POB; †††, P<0.001; ††, P<0.01 compared with the non-stimulated β-arrestin 2−/− POBs).
The increased basal cAMP in the β-arrestin cells is likely due to the loss of β-arrestin mediated desensitization of PTH1R and/or other Gs coupled 7TMRs.
There was no significant difference in cAMP generated between WT and β-arrestin 2−/−POB at 5 min.

The target in assay [2] is T1, endogenous PTH1R. The experiment in a line: Gq/11 PI hydrolysis in POB cultures. In kind it is cell-based, mice. Particulars: data not shown.
The subject of assay [3] is WT and β-arrestin 2−/− mice. The assay can be described thus: Bone mineral density after intermittent daily IP treatment. It counts as in vivo. Particulars: once daily IP 40 mg/kg/day, 4 and 8 weeks. Here is the method:
FIG. 3. PTH-βarr increases lumbar spine bone mineral density. The effect of daily administration of vehicle, PTH (1-34)(PTH) or PTH-βarr on bone mineral density after 4 and 8 weeks was measured in the (a) lumbar spine of WT mice (b) lumbar spine of β-arrestin 2−/− (c) femur shaft of WT mice and (d) femoral shaft of β-arrestin 2−/− mice. […] Data represents the mean±SEM of at least 7 independent mouse measurements. (*, P<0.05; **, P<0.01 compared with vehicle treated controls)
β-arrestin 2−/− mice are fertile and present no gross phenotypic abnormalities. Further, no gross alterations in skeletal morphology or size were detected by x-ray analysis of β-arrestin 2−/− mice compared to 6 WT mice (data not shown). To examine the contribution of β-arrestin mediated signaling to regulation of the anabolic effects of PTH on bone, 9 week old WT and β-arrestin 2−/− mice were treated with intermittent (i.e. once daily) IP injection of PTH (1-34) (40 mg/kg/day), the β-arrestin biased agonist PTH-βarr (40 mg/kg/day). Its usually mg/kg/day) or vehicle. Bone mineral density (BMD) measurements were obtained at baseline and serially over 4 to 8 wks (FIG. 2). […] There were no significant differences in whole body BMD or femoral BMD between the WT or β-arrestin 2−/− mice. […] Consistent with earlier reports, these increases in BMD were absent in the PTH(1-34) treated β-arrestin 2−/− mice (FIGS. 2B and D). […] The decrease in BMD in β-arrestin 2−/− mice treated with PTH-βarr, are likely due to the inhibition of G protein mediated signaling as well as the absence of β-arrestin 2 mediated signaling.

Assay [4] deals with WT and β-arrestin 2−/− mice. The experiment in a line: 24 hour urine deoxypyridinoline (DPD), marker of bone resorption. It counts as in vivo. Particulars: 4 weeks of treatment. How it is done: FIG. 5. PTH-βarr increases serum osteocalcin and has no effect on urine Deoxypyridinoline (DPD) excretion. (a) Serum osteocalcin, a biochemical marker of bone formation was measured in WT and β-arrestin 2−/− mice after 4 weeks of treatment with vehicle, PTH (1-34) (PTH) or PTH-βarr. […] There was no increase in serum osteocalcin in the arrestin 2−/− mice treated with PTH-βarr compared to placebo. […] (b) 24 hour urine DPD, a marker of bone degradation and bone resorption, was also measured in WT and β-arrestin 2−/− mice after 4 weeks of treatment with vehicle, PTH or PTH-βarr. […] Data represent the mean±SEM of at least 7 independent mouse measurements. (***, P<0.001; *, P<0.05; compared with vehicle treated WT mice; †††, P<0.001; ††, P<0.01 compared with vehicle treated β-arrestin 2−/− mice).
265. 24 hour urine deoxypyridinoline (DPD), a marker of bone degradation and bone resorption, was also measured. […] The increase in urine DPD excretion in the PTH(1-34) treated β-arrestin 2−/− mice compared to WT further supports the hypothesis that osteoblast-osteoclast coupling is meditated primarily through G protein dependent mechanisms that are disinhibited in the absence of β-arrestin 2.

In a further assay the test system is PTH1 receptor. The note with it: cited from earlier work.
[5] abbreviates: Gardella 1996, Sneddon 2004, Bisello 2002.

With (D-Trp12, Tyr34)-PTH(7-34) [PTH-βarr], the cAMP accumulation entry is listed as “unable to stimulate cAMP; also recorded: did not increase cAMP” on endogenous PTH1R [1] (WT POB) and “decreases basal cAMP levels; also recorded: significantly decreased” at endogenous PTH1R [1] (β-arrestin 2−/− POB). Besides, the “Gq/11 PI hydrolysis” value at endogenous PTH1R [2] is listed as “did not activate”. Besides, the “femoral BMD vs vehicle” value in assay [3] (WT mice) is “did not significantly affect”; in assay [3] (β-arrestin 2−/− mice), “decreases”. The “lumbar spine BMD vs vehicle” value in assay [3] (WT mice, 40 mg/kg/day) is given as “significant increases”. Further, the “24 hour urine DPD vs vehicle” value in assay [4] (WT mice) and in assay [4] (β-arrestin 2−/− mice) was “no significant effect” in each case. The “PTH1 receptor-Gs coupling / cAMP production” value in the assay with PTH1 receptor (setting [5]) is given as “inverse agonist”. Besides, the “arrestin-dependent sequestration / β-arrestin recruitment” value in the assay with PTH1 receptor (setting [5]) is “promoting arrestin-dependent sequestration”. Further, the “β-arrestin-dependent ERK1/2 activation” value in the assay on PTH1 receptor (in vitro, Gesty-Palmer 2006) is reported as “elicit β-arrestin-dependent ERK1/2 activation”.

As for PTH(1-34) [reference compound], the cAMP accumulation entry with endogenous PTH1R [1] (WT POB) is reported as “robust increases”; with endogenous PTH1R [1] (WT POB, listed as PTH) it was “robust increase”; with endogenous PTH1R [1] (β-arrestin 2−/− POB) it was “robust increases”; in the assay with endogenous PTH1R [1] (β-arrestin 2−/− POB, listed as PTH) it was “robust increase”. In the assay with endogenous PTH1R [2], the “Gq/11 PI hydrolysis” value is “did not activate”. Besides, the “femoral BMD vs vehicle” value was “marked increases” in assay [3] (WT mice) and “absent” in assay [3] (β-arrestin 2−/− mice). Moreover, the “lumbar spine BMD vs vehicle” value in assay [3] (WT mice) was “marked increases”; in assay [3] (β-arrestin 2−/− mice), “absent”. The “24 hour urine DPD vs vehicle” value in assay [4] (WT mice) is given as “significantly increased”; in assay [4] (β-arrestin 2−/− mice) it was “significantly increased”; in assay [4] (β-arrestin 2−/− mice, listed as PTH), “increase”.
